Data set [1] in a line: MTS cytotoxicity assay on LX-2 normal hepatic cells. The settings on record: human, LX-2 hepatic stellate cells. For orientation: Formazan colour is commonly taken as a measure of viable cells.
Data set [2] concerns STZ-induced diabetic mice. Nature of the data set: In vivo hypoglycemic effect in mice with STZ-induced diabetes. The settings on record: group III STZ-diabetic mice, fasting. How it is done:
The Carbazole-triazole derivatives were tested in a laboratory setting to determine their ability to inhibit the enzyme α-amylase and α-glucosidase. […] Therefore, C5f was selected for further investigation of its ability to lower blood sugar levels in an in vivo study. This investigation sought to reveal the effect of C5f on blood glucose levels in mice with diabetes caused by Streptozotocin (STZ). This compound has a significant hypoglycemic effect in STZ-diabetic mice, similar to the effect reported in the control group (mice that were not treated), as shown in Figure 3. The mice were divided into three groups: group I: negative control mice without any treatment; Group II: positive control mice with STZ treatment only; and Group III: mice treated with STZ and then with our compound C5f.
The investigations conducted on mice adhered strictly to the protocols established by the Association for Assessment and Accreditation of Laboratory Animal Care International. The Institutional Review Board of the Animal House and Use Committee at An-Najah National University granted full ethical approval for the study (approval number: Med. September. 2022/2A). […]
The experiment entailed inducing diabetes intraperitoneally by administering streptozotocin (STZ) (i.p.). […] To determine the development of diabetes, the mice’s fasting blood glucose levels were evaluated 4 days following the injection of STZ. […]

Data set [3] concerns LX-2 cells. The experiment in a line: MTS cytotoxicity assay on LX-2 normal hepatic cells. Particulars: LX-2, 100 μM.

The text below walks through data of PMC11739978, “Next-Generation Carbazole-Linked 1,2,4-Triazole-Thione Derivatives: Strategic Design, Synthesis, Molecular Docking, and Evaluation of Antidiabetic Potential” (ACS Omega, 2024).

“And” between values parts separate entries of the source, which are not always exact repeats. Equal values may be shown once.

By viability is commonly meant a per cent measure of how many cells are alive, often set against a control. A high value points to less harm to the cells. `O=c1[nH]cc(F)c(=O)[nH]1` [5-Fu, 5-Fluorouracil, reference compound] returned a viability at 24 h, 100 µM in data set [1] of 13.4%.
With `COc1ccc(-n2c(Cn3c4ccccc4c4ccccc43)n[nH]c2=S)cc1` [C5f, 5-((9H-Carbazol-9-yl)methyl)-4-(4-methoxyphenyl)-2,4-dihydro-3H-1,2,4-triazole-3-thione], in data set [2] (10 mg/kg i.p. daily for 5 days, 10 mg/kg), the “blood glucose level after five doses of C5f” value was 216.15 mg/dL and 216.15 ± 3.45 mg/dL. Moreover, the “blood glucose level before C5f treatment” value in data set [2] (baseline after STZ induction) is 290.54 mg/dL and 290.54 ± 2.15 mg/dL. The same molecule yielded a viability at 24 h, 100 µM in data set [1] of 63.6%.
Molecule `S=c1[nH]nc(Cn2c3ccccc3c3ccccc32)n1-c1ccc(Br)cc1` [C5g, 5-((9H-Carbazol-9-yl)methyl)-4-(4-bromophenyl)-2,4-dihydro-3H-1,2,4-triazole-3-thione] gave a viability at 24 h, 100 µM in data set [1] of 65.3 to 85.3%.
`S=c1[nH]nc(Cn2c3ccccc3c3ccccc32)n1-c1ccc(Cl)cc1` [C5h, 5-((9H-Carbazol-9-yl)methyl)-4-(4-chlorophenyl)-2,4-dihydro-3H-1,2,4-triazole-3-thione] displayed a viability at 24 h, 100 µM in data set [1] of 65.3 to 85.3%.
In data set [1], `S=c1[nH]nc(Cn2c3ccccc3c3ccccc32)n1C1CCCCC1` [C5m, 5-((9H-Carbazol-9-yl)methyl)-4-cyclohexyl-2,4-dihydro-3H-1,2,4-triazole-3-thione] had a viability at 24 h, 100 µM of 65.3 to 85.3%.
Turning to `O=C(c1ccccc1)n1c(Cn2c3ccccc3c3ccccc32)n[nH]c1=S` [C5o, (3-((9H-Carbazol-9-yl)methyl)-5-thioxo-1,5-dihydro-4H-1,2,4-triazol-4-yl)(phenyl)methanone], the “lower cytotoxic activity compared to the positive control 5-FU” value in data set [3] was 3 fold. The molecule further yielded a viability at 24 h, 100 µM in data set [1] of 36.5%.
The molecule `S=c1[nH]nc(Cn2c3ccccc3c3ccccc32)n1C1CC2CCC1C2` (stereo not drawn) [C5r, 5-((9H-Carbazol-9-yl)methyl)-4-(bicyclo[2.2.1]heptan-2-yl)-2,4-dihydro-3H-1,2,4-triazole-3-thione] came in with a viability at 24 h, 100 µM in data set [1] of 64.5%.
Turning to `S=c1[nH]nc(Cn2c3ccccc3c3ccccc32)n1CCc1ccccc1` [C5s, 5-((9H-Carbazol-9-yl)methyl)-4-phenethyl-2,4-dihydro-3H-1,2,4-triazole-3-thione], in data set [3], the “lower cytotoxic activity compared to the positive control 5-FU” value is 3 fold. Besides, the viability at 24 h, 100 µM in data set [1] was found to be 37.8%.
